Patent publication US12421232B2, “Kinase inhibitor compounds and compositions and methods of use” (ICAHN SCHOOL OF MEDICINE AT MOUNT SINAI, priority 2018, dated 2025)
Where two headings read alike, the source gives them in different places.

Assays:
Test in all cases: KINOMEscan Assay (DiscoverX)
Format in all cases: binding
FLT3(ITD) = FLT3(ITD) mutant; 10 μM
[1] = biological target: T1, JAK3(JH1DOMAIN-CATALYTIC) (Homo sapiens, UniProt P52333); conditions: read-out: % DMSO Ctrl
T1 construct: JH1DOMAIN; purchased DiscoverX

KIT(V559D,V654A) = biological target: T2, KIT(V559D,V654A) (Homo sapiens, UniProt P10721, V559D/V654A); conditions: read-out: % DMSO Ctrl
T2 construct: purchased DiscoverX

PDGFRA = biological target: T3, PDGFRA (Homo sapiens, UniProt P16234); conditions: read-out: % DMSO Ctrl
T3 construct: purchased DiscoverX

PIK3C2G = biological target: T4, PIK3C2G (Homo sapiens, UniProt O75747); conditions: read-out: % DMSO Ctrl
T4 construct: purchased DiscoverX
T4 sequence (O75747 1-1486): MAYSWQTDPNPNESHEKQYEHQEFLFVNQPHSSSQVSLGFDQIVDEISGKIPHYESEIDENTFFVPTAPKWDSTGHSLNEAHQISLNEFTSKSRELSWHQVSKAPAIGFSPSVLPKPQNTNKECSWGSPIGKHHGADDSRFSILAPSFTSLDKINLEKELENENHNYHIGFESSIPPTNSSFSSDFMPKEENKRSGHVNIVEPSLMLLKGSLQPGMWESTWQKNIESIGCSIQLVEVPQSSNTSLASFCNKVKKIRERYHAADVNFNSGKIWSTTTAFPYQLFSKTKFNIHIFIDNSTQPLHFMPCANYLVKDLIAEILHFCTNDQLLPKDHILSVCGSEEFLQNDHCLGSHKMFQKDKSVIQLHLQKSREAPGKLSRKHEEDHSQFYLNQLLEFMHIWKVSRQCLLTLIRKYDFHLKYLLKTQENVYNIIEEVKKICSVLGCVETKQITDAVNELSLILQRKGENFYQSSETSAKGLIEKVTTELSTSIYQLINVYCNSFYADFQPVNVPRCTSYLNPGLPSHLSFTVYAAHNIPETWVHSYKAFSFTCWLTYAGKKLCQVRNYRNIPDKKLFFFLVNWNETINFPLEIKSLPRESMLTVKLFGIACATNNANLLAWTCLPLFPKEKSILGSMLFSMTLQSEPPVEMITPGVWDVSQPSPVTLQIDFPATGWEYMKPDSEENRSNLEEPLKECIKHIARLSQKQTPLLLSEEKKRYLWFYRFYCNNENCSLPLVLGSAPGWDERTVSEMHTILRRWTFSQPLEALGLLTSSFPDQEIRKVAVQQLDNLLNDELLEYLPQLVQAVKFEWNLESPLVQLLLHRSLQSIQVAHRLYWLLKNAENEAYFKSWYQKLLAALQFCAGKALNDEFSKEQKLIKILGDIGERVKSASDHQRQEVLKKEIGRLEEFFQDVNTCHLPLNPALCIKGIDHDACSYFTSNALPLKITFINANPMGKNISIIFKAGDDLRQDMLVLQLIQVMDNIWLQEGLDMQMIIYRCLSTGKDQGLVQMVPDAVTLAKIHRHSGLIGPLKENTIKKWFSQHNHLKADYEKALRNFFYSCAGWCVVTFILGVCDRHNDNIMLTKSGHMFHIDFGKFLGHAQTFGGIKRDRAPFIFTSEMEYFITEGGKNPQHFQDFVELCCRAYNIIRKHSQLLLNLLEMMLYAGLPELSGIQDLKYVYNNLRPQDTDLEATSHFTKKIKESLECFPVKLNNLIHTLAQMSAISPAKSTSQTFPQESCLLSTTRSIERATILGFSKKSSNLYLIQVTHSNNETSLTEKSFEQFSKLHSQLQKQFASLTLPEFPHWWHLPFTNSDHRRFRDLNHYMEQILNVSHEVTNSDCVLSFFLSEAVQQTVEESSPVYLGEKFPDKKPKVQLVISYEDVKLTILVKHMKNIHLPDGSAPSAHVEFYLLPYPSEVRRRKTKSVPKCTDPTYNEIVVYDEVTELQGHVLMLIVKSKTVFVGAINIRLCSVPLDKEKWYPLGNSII

PIM3 = biological target: T5, PIM3 (Homo sapiens, UniProt Q86V86); conditions: read-out: % DMSO Ctrl
T5 construct: purchased DiscoverX

TAOK3 = biological target: T6, TAOK3 (Homo sapiens, UniProt Q9H2K8); conditions: read-out: % DMSO Ctrl
T6 construct: purchased DiscoverX
T6 sequence (Q9H2K8 1-898): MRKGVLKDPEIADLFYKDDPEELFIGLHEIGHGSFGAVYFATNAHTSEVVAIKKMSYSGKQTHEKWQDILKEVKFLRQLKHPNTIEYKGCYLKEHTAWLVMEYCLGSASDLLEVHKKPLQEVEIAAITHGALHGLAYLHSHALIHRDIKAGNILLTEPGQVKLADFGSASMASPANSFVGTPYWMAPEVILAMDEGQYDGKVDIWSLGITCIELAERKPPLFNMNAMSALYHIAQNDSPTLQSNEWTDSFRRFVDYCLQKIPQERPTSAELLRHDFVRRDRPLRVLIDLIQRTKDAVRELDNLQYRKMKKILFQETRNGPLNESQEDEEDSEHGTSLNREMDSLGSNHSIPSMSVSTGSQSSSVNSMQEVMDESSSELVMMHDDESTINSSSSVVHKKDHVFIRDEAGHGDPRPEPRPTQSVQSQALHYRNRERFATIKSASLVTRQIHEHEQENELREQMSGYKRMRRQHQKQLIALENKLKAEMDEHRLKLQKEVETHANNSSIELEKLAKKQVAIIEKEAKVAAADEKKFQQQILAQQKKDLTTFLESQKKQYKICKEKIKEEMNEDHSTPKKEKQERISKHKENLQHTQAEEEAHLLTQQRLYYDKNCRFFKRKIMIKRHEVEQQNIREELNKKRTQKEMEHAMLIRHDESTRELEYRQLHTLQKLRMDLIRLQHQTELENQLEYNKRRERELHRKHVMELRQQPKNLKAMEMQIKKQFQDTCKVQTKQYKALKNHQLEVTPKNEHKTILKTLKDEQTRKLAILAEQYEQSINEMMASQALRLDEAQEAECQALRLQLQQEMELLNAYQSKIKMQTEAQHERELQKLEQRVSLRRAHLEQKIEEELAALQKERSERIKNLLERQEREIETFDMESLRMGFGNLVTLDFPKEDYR

CSNK1A1 = biological target: T7, CSNK1A1 (Homo sapiens, UniProt P48729); conditions: read-out: % DMSO Ctrl
T7 construct: purchased DiscoverX

DAPK2 = biological target: T8, DAPK2 (Homo sapiens, UniProt Q9UIK4); conditions: read-out: % DMSO Ctrl
T8 construct: purchased DiscoverX
T8 sequence (Q9UIK4 whole entry): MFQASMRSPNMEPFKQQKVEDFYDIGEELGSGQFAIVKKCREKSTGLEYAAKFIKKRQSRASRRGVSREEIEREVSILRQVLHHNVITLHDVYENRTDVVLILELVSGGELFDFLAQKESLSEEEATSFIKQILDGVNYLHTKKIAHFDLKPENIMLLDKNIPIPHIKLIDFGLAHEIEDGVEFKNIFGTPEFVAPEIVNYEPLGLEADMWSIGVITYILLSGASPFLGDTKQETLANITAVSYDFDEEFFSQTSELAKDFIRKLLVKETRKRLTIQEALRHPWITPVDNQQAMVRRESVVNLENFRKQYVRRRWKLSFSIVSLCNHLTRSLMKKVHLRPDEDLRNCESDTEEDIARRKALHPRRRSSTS

T7 sequence (P48729 whole entry): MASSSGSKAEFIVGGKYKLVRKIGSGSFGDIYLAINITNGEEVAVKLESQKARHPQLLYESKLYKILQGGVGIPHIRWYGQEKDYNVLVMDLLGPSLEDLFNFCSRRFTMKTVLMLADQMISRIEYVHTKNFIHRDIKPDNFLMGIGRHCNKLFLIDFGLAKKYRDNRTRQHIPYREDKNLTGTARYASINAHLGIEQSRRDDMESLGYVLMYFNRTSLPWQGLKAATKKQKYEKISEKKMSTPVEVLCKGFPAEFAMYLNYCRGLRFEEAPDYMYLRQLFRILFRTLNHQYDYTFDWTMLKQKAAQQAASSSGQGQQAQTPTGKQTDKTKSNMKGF
T2 sequence (P10721 26-976 V559D/V654A): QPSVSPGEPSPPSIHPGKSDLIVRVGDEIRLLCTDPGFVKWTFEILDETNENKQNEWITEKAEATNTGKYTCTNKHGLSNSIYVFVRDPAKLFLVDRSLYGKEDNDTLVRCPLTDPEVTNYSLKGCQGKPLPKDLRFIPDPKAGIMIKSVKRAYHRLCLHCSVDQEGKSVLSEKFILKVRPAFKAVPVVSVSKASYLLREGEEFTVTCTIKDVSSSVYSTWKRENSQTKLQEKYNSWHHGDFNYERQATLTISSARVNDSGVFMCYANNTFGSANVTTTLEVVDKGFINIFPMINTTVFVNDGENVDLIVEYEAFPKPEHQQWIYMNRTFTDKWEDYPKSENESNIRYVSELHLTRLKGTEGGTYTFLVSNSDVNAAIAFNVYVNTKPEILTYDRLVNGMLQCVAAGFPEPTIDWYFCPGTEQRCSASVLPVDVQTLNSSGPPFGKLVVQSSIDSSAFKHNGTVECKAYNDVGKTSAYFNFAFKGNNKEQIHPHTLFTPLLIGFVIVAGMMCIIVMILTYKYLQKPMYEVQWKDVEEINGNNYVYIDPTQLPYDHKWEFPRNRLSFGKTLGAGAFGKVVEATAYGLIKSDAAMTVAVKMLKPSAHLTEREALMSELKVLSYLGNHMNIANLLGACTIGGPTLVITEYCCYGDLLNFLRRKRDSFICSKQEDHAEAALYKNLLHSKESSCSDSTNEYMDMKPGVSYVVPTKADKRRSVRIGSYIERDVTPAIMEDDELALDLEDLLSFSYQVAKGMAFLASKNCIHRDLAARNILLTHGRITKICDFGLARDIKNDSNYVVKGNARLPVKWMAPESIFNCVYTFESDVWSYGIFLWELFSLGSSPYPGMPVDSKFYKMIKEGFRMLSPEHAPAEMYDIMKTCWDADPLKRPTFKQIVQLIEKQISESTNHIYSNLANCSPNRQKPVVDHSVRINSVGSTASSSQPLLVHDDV
T3 sequence (P16234 24-1089): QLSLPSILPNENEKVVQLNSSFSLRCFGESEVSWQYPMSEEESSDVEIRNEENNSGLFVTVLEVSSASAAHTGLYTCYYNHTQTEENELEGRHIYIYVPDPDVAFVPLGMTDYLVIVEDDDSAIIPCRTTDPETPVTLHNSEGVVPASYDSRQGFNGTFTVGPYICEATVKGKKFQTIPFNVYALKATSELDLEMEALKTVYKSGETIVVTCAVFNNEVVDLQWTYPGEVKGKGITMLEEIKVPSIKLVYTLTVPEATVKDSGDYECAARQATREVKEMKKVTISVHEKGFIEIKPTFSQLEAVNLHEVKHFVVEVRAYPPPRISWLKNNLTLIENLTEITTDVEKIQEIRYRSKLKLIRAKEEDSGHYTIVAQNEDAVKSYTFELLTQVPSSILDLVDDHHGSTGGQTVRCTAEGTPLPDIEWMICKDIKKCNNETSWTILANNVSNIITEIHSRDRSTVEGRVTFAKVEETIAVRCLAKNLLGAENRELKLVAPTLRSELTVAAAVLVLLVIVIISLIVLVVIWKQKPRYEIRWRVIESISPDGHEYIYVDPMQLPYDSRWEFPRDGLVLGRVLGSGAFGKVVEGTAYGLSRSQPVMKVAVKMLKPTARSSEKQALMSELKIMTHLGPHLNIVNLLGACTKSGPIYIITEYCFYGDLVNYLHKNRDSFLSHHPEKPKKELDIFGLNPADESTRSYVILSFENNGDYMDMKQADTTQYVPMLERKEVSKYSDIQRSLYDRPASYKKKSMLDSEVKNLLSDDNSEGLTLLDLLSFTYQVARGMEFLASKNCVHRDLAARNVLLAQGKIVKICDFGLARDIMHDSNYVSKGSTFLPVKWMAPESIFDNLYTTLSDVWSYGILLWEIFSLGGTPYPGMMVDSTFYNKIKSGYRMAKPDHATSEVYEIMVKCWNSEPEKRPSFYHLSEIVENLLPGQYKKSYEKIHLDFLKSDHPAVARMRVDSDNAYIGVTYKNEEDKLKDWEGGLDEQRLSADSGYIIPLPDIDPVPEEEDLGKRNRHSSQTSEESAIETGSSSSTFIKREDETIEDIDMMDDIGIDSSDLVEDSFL
T1 sequence (P52333 822-1111 limits assumed): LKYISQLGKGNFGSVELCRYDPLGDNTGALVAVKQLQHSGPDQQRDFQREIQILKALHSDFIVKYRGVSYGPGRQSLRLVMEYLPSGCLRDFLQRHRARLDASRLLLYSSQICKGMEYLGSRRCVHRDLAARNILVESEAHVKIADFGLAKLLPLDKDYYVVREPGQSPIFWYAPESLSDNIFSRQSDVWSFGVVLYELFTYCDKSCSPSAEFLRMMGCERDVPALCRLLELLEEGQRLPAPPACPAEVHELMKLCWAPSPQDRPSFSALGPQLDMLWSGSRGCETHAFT

SMILES	% DMSO Ctrl (FLT3(ITD))	remaining binding at 10 µM ([1]; JAK3(JH1DOMAIN-[…]), 10 μM)	remaining binding at 10 µM (KIT(V559D,V654A); KIT(V559D,V654A) mutant, 10 μM)	remaining binding at 10 µM (PDGFRA; PDGFRA, 10 μM)	remaining binding at 10 µM (PIK3C2G; PIK3C2G, 10 μM)	remaining binding at 10 µM (PIM3; PIM3, 10 μM)	remaining binding at 10 µM (TAOK3; TAOK3, 10 μM)	remaining binding at 10 µM (CSNK1A1)	remaining binding at 10 µM (DAPK2)	remaining binding at 10 µM [1]	remaining binding at 10 µM (KIT(V559D,V654A))	remaining binding at 10 µM (PDGFRA)	remaining binding at 10 µM (PIK3C2G)	remaining binding at 10 µM (PIM3)	remaining binding at 10 µM (TAOK3)	remaining binding at 10 µM (CSNK1A1; CSNK1A1, 10 μM)
COc1ccc2c(c1)[nH]c1c(C)nc(CO)cc12 [Compound 2-8, (1-Methyl-7-methoxy-9H-pyrido[3,4-b]indol-3-yl)methanol]	87 % DMSO Ctrl	96%	100%	100%	36%	15%	70%									
COc1ccc2c3ccnc(C)c3n(CCCc3noc(N)n3)c2c1 [Compound 20-13, 3-(3-(7-Methoxy-1-methyl-β-carbolin-9-yl)propyl)-5-amino-1,2,4-oxadiazole]	72 % DMSO Ctrl							33%	92%	87%	98%	83%	1.2%	39%	77%	
C#CCn1c2cc(OC)ccc2c2ccnc(C)c21 [Compound 20-23a, 3-(7-Methoxy-1-methyl-β-carbolin-9-yl)-propan-1-yne]	61 % DMSO Ctrl	100%				32%			70%		100%	100%	38%		93%	13%
COc1ccc2c(c1)[nH]c1c(C)nccc12 [Harmine, reference compound]								5%		61%				43%		
